# Experimental data from patent publication US20220007644A1, “COMPOSITIONS COMPRISING PYRIDINE CARBOXYLATE HERBICIDES WITH PHOTOSYSTEM II AND OPTIONAL HPPD INHIBITOR HERBICIDES” (Corteva Agriscience LLC, priority 2018, published 2022).
# Legend:
# Format in all cases: in vivo
# [1] = tested on: SETFA, Setaria faberi (giant foxtail); assay: Greenhouse postemergence herbicidal effect (visual injury, 20-22 d)
# Description: (§1) Greenhouse Trial Methodology—Evaluation of Postemergence Herbicidal Effect
# (§2) Seeds of the desired test plant species were planted in a 90:10% v/v (volume/volume) mixture of PRO-MIX® BX (Premier Tech Horticulture, Quakertown, Pa., USA) and PROFILE®GREENS GRADE™ (Profile Products LLC, Buffalo Grove, Ill., USA) planting mixture, which typically has a pH of 5.2 to 6.2 and an organic matter content of at least 50 percent, in plastic pots with a surface area of 103.2 square centimeters (cm^2). In some aspects, to help ensure good germination and healthy plants, a fungicide treatment and/or other chemical or physical treatment was applied. The plants were grown for 7-36 days (d) in a greenhouse with an approximate 14-hour (h) photoperiod which was maintained at about 23° C. during the day and 22° C. during the night. Nutrients and water were added on a regular basis and supplemental lighting was provided with overhead metal halide 1000-Watt lamps as necessary. The plants were employed for testing when they reached the second or third true leaf stage.
# (§3) Emulsifiable concentrates of each of each pyridine carboxylate herbicide (Compound A or Compound B) were prepared at 100 grams acid equivalent per liter (g ae/L). The emulsifiable concentrates also included a safener, cloquintocet-mexyl, at 120 grams active ingredient per liter (g ai/L), unless otherwise noted below. An aliquot of each emulsifiable concentrate was placed in a 25 mL glass vial and diluted with an aqueous mixture of 1.25% (v/v) ACTIROB® B esterified rapeseed oil (Bayer Crop Science, Research Triangle Park, N.C., USA) or MSO® Concentrate with LECI-TECH® methylated soybean oil (Loveland Products, Loveland, Colo., USA) to obtain concentrated stock solutions at the highest application rate for each herbicide, based upon a 12 milliliter (mL) application volume at a rate of 187 liters per hectare (L/ha). The concentrated stock solutions were further diluted with an aqueous mixture of 1.25% v/v ACTIROB® B or MSO® Concentrate with LECI-TECH® to obtain stock solutions at reduced application rates for each herbicide. Spray solutions of the herbicide combinations (Compound A or Compound B plus PS-II herbicide and optional HPPD herbicide) were prepared by adding weighed amounts or aliquots of the PS-II herbicide and optional HPPD herbicide to the stock solutions of Compound A or Compound B to form 12-mL spray solutions in two- or three-way combinations.
# (§4) The spray solutions were applied to the plant material with an overhead Mandel track sprayer equipped with 8002E nozzles calibrated to deliver 187 L/ha over an application area of 0.503 square meters (m^2) at a spray height of 18 inches ([…] centimeters (cm)) above the average plant canopy. Control plants were sprayed in the same manner with the solvent blank. All pyridine carboxylate herbicide (component a) application rates are given as “g ae/ha” and all PS II inhibitor herbicide (component b) and HPPD inhibitor herbicide (component c) application rates are given as “g ai/ha.”
# (§5) The treated plants and control plants were placed in a greenhouse as described above and watered by sub-irrigation to prevent wash-off of the test compounds. After 20-22 d, the condition of the test plants as compared with that of the control plants was determined visually and scored on a scale of 0 to 100 percent where 0 corresponds to no injury and 100 corresponds to complete kill.
# [2] = tested on: CIRAR, Cirsium arvense (Canada thistle); assay: as above
# Description: as §1, §2, §3, §4, §5
# [3] = tested on: KCHSC, Kochia scoparia (kochia); assay: as above
# Description: as §1, §2, §3, §4, §5
# [4] = tested on: STEME, Stellaria media (chickweed); assay: as above
# Description: as §1, §2, §3, §4, §5
# [5] = tested on: BRSNN, Brassica napus (spring rape); assay: as above
# Description: as §1, §2, §3, §4, §5
# [6] = tested on: POLCO, Polygonum convolvulus (wild buckwheat); assay: as above
# Description: as §1, §2, §3, §4, §5
# [7] = tested on: CHEAL, Chenopodium album L. (common lambsquarters); assay: as above
# Description: as §1, §2, §3, §4, §5
# [8] = tested on: EPHHL, Euphorbia heterophylla (poinsettia); assay: as above
# Description: as §1, §2, §3, §4, §5
# [9] = tested on: ABUTH, Abutilon theophrasti (velvetleaf); assay: as above
# Description: as §1, §2, §3, §4, §5
# [10] = tested on: VIOTR, Viola tricolor (wild pansy); assay: as above
# Description: as §1, §2, §3, §4, §5
# [11] = tested on: BRSNW, Brassica napus (winter rape); assay: as above; conditions: 140 g ai/ha alone
# Description: as §1, §2, §3, §4, §5
# [12] = tested on: AMARE, Amaranthus retroflexus (pigweed); assay: as above; conditions: 140 g ai/ha alone
# Description: as §1, §2, §3, §4, §5
# [13] = tested on: MATCH, Matricaria chamomilla (wild chamomile); assay: as above; conditions: 140 g ai/ha alone
# Description: as §1, §2, §3, §4, §5
# [14] = tested on: SASKR, Salsola kali (Russian thistle); assay: as above; conditions: 140 g ai/ha alone
# Description: as §1, §2, §3, §4, §5
# [15] = tested on: SINAR, Sinapis arvensis (wild mustard); assay: as above; conditions: 140 g ai/ha alone
# Description: as §1, §2, §3, §4, §5
# [16] = tested on: HORVS, Hordeum vulgare (spring barley); assay: Greenhouse postemergence phytotoxicity on crop (visual injury, 20-22 d); conditions: 140 g ai/ha alone
# Description: as §1, §2, §3, §4, §5
# [17] = tested on: TRZAS, Triticum aestivum (spring wheat); assay: as above; conditions: 140 g ai/ha alone
# Description: as §1, §2, §3, §4, §5
structure (smiles),measurement,setting,value
"C#CCOC(=O)c1nc(-c2ccc3cc[nH]c3c2F)c(F)c(N)c1Cl [Compound B, propargyl 4-amino-3-chloro-5-fluoro-6-(7-fluoro-1H-indol-6-yl)pyridine-2-carboxylate]",visual injury,[1]; 7.5 g ae/ha alone,70%
same,visual injury,[1]; 10 g ae/ha alone,55%
same,"% visual injury, Obs","[1]; SETFA, Compound B 10 g/ha",55%
same,visual injury,[2]; 7.5 g ae/ha alone,45%
same,visual injury,[2]; 10 g ae/ha alone,45%
same,"% visual injury, Obs","[2]; CIRAR, Compound B 10 g/ha",45%
same,visual injury,[3]; 7.5 g ae/ha alone,68%
same,visual injury,[3]; 10 g ae/ha alone,80%
same,"% visual injury, Obs","[3]; KCHSC, Compound B 10 g/ha",80%
same,visual injury,[4]; 7.5 g ae/ha alone,100%
same,visual injury,[4]; 10 g ae/ha alone,93%
same,"% visual injury, Obs","[4]; STEME, Compound B 10 g/ha",93%
same,visual injury,[5]; 7.5 g ae/ha alone,68%
same,visual injury,[5]; 10 g ae/ha alone,85%
same,visual injury,[6]; 7.5 g ae/ha alone,73%
same,visual injury,[6]; 10 g ae/ha alone,80%
same,"% visual injury, Obs","[6]; POLCO, Compound B 10 g/ha",80%
same,visual injury,[7]; 7.5 g ae/ha alone,85%
same,visual injury,[7]; 10 g ae/ha alone,90%
same,"% visual injury, Obs","[7]; CHEAL, Compound B 10 g/ha",90%
same,visual injury,[8]; 7.5 g ae/ha alone,83%
same,visual injury,[8]; 10 g ae/ha alone,99%
same,"% visual injury, Obs","[8]; EPHHL, Compound B 10 g/ha",99%
same,visual injury,[9]; 7.5 g ae/ha alone,68%
same,visual injury,[9]; 10 g ae/ha alone,68%
same,"% visual injury, Obs","[9]; ABUTH, Compound B 10 g/ha",68%
same,visual injury,[10]; 7.5 g ae/ha alone,10%
same,visual injury,[10]; 10 g ae/ha alone,40%
same,"% visual injury, Obs","[10]; VIOTR, Compound B 10 g/ha",40%
"N#Cc1cc(Br)c(O)c(Br)c1 [Bromoxynil, 3,5-dibromo-4-hydroxbenzonitrile, reference compound]",visual injury Obs,[1]; 140 g ai/ha alone,0%
same,visual injury,[2]; 140 g ai/ha alone,45%
same,visual injury Obs,[2]; 140 g ai/ha alone,60%
same,visual injury,[11],10%
same,visual injury,[3]; 140 g ai/ha alone,38%
same,visual injury Obs,[3]; 140 g ai/ha alone,35%
same,visual injury Obs,[4]; 140 g ai/ha alone,0%
same,visual injury Obs,[5]; 140 g ai/ha alone,3%
same,visual injury,[6]; 140 g ai/ha alone,100%
same,pest or weed control at 140 g/ha,"[6]; Fallopia convolvulus, post-emergence, 140 g ai/ha alone, read-out: visual injury Obs",55%
same,visual injury,[7]; 140 g ai/ha alone,0%
same,visual injury Obs,[7]; 140 g ai/ha alone,48%
same,visual injury Obs,[8]; 140 g ai/ha alone,30%
same,visual injury,[12],5%
same,visual injury Obs,[9]; 140 g ai/ha alone,30%
same,visual injury,[13],5%
same,visual injury,[14],75%
same,visual injury,[15],10%
same,visual injury Obs,[10]; 140 g ai/ha alone,0%
same,visual injury,[16],0%
same,visual injury,[17],0%
